Reference: patent US10562912B2 (C&C Research Laboratories, priority 2013, dated 2020)

Assays:
Type in all cases: cell-based
MDA-MB-231 = test: Cell growth inhibition assay, breast cancer cell line MDA-MB-231; conditions: Homo sapiens; MDA-MB-231 breast cancer cell line, 5,000 cells/well
HEL92.1.7 = test: Cell growth inhibition assay, blood cancer cell line HEL92.1.7; conditions: Homo sapiens, HEL 92.1.7, HEL92.1.7 blood cancer cell line
In short: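 Cells were seeded at 3,000/well (HCT116, DU-145) or 5,000/well (SW626 and the others) and exposed to serial compound dilutions for 72 to 96 h at 37 °C under 5% CO2. Viability was read as CellTiter-Glo luminescence against 0.1% DMSO and cell-free wells.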

LNCaP = test: Cell growth inhibition assay, prostate cancer cell line LNCaP (medium with 10 ng/mL IL-6); conditions: Homo sapiens, medium supplemented with 10 ng/mL of IL-6, 10,000 cells/well
DU-145 = test: Cell growth inhibition assay, prostate cancer cell line DU-145; conditions: Homo sapiens, DU-145 prostate cancer cell line
In short: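 Cancer cells, counted and seeded at 3,000 (DU-145, HCT116) or 5,000 (SW626) cells/well, received graded compound concentrations. Plates incubated 72–96 h at 37° C. with 5% CO2 were then assayed with CellTiter-Glo.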

STAT3 = target: T1, STAT3 (Homo sapiens, UniProt P40763); test: STAT3 reporter gene assay (luciferase), LNCaP stable cell line (pSTAT3-TA-luc), IL-6 stimulation
T1 construct: plasmid pSTAT3-TA-luc), which contains a stably operating STAT3 promoter; endogenous in cells
T1 sequence (P40763 whole entry): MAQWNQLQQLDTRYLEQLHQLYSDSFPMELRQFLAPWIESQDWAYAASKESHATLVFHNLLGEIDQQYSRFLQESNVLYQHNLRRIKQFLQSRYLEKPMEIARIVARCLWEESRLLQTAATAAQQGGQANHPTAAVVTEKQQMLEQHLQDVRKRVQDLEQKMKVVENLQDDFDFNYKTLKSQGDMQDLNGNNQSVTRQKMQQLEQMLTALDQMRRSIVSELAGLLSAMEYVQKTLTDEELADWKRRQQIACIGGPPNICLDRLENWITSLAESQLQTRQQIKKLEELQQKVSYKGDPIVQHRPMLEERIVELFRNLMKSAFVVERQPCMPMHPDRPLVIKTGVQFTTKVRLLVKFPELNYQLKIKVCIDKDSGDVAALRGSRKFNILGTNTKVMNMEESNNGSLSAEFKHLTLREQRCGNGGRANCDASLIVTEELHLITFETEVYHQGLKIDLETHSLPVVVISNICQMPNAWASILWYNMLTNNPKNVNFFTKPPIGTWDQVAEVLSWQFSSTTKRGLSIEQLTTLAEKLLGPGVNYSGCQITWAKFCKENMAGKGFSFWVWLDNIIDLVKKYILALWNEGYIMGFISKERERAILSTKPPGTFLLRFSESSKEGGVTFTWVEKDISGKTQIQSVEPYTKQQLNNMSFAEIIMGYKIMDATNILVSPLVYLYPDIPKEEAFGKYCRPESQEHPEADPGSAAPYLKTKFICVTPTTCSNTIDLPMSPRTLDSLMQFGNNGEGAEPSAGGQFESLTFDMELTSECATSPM
In short: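 Cytotoxicity was run on a duplicate plate with CellTiter-Glo, while the other plate gave luciferase read-outs from lysed LNCaP pSTAT3-TA-luc reporter cells. Cells were treated with graded compound concentrations plus IL-6 (10 ng/mL final) for 24–48 h in 3% DCC-FBS medium. Unstimulated and stimulated wells served as negative and positive controls.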

AGS = test: Cell growth inhibition assay, stomach cancer cell line AGS; conditions: Homo sapiens; AGS stomach cancer cell line, 3,000 cells/well
Protocol: The inhibitory effects of the compounds of the present invention against the growth of cancer cells were evaluated as shown below. The cancer cell lines including stomach cancer cell line (AGS), breast cancer cell lines (MDA-MB-231, MDA-MB-468, and BT-549), prostate cancer cell lines (LNCaP and DU-145), colon cancer cell line (HCT116), ovarian cancer cell line (SW626), liver cancer cell line (Hep3B), kidney cancer cell line (ACHN), lung cancer cell line (NCI-H23) and blood cancer cell lines (HEL92.1.7 and U266) were cultured under the protocol provided by each supplier. A medium supplemented with 10 ng/mL of IL-6 was used for LNCaP, a prostate cancer cell line, when treated with a drug. Each type of cells to be used in experiments were sub-cultured in a 96-well plate by counting the exact number of cells using Tali™ Image-based Cytometer (Life Technologies). In a 96-well plate, AGS, HCT116, and DU-145 were employed with 3,000 cells/well; NCI-H23, SW626, Hep3B, ACHN, BT-549, MDA-MB-231, HEL92.1.7, and U266 were employed with 5,000 cells/well; and LNCaP and MDA-MB-468 were employed with 10,000 cells/well. The cells were treated with the compounds listed in Examples which were diluted in various concentrations. Upon completion of the compounds treatment, AGS, HCT116, SW626, DU145, NCI-H23, Hep3B, ACHN, BT-549, LNCaP, HEL92.1.7, and U266 cells were cultured at 37° C. under 5% CO2 for from 72 to 96 hours, and MDA-MB-231 and MDA-MB-468 cells were cultured at 37° C. in air for from 72 to 96 hours. Subsequently, the cells were observed under microscope and drug precipitation and particular findings were investigated and recorded. And then, the 96-well plate was placed at room temperature for 30 minutes, added with 20 μL/well of CellTiter-Glo solution (Cat No. G7573, Promega) and shaken for 10 minutes, followed by being subjected to the measurement using PHERAstar™ microplate reader (BMG LABTECH) according to the supplier's general luminometer protocol. Wells where only culture liquid added without cell plating were used as a negative control, whereas wells where culture liquid containing 0.1% DMSO instead of the compounds listed in Examples were used as a positive control.

| SMILES | IC50 (MDA-MB-231) | IC50 (HEL92.1.7) | IC50 (LNCaP) | IC50 (DU-145) | IC50 (STAT3) | IC50 (AGS) |
| --- | --- | --- | --- | --- | --- | --- |
| CC(C)(c1cc(Br)cc(NC(=O)c2cc3ccc(NS(C)(=O)=O)cc3[nH]2)c1)c1ccc(F)cc1F [Example 15, N-(3-bromo-5-(2-(2,4-difluorophenyl)propan-2-yl)phenyl)-6-(methylsulfonamido)-1H-indole-2-carboxamide] | 0.068 µM | 1.8 µM | 0.29 µM | 0.25 µM | 0.12 µM |  |
| CC(C)(c1cc(Br)cc(NC(=O)c2cc3cc(NS(C)(=O)=O)ccc3s2)c1)c1ccc(F)cc1F [Example 35, N-(3-bromo-5-(2-(2,4-difluorophenyl)propan-2-yl)phenyl)-5-(methylsulfonamido)benzo[b]thiophene-2-carboxamide] | 0.027 µM | 0.28 µM | 0.067 µM | 0.06 µM | 0.076 µM |  |
| O=C(Nc1cccc(-c2ccc(F)cc2F)c1)c1cc2ccc([N+](=O)[O-])cc2[nH]1 [Example 225, N-(2′,4′-difluoro-[1,1′-biphenyl]-3-yl)-6-nitro-1H-indole-2-carboxamide] |  |  | > 10 µM |  | > 10 µM | > 50 µM |
| O=C(Nc1cccc(-c2ccccc2C(F)(F)F)c1)c1cc2ccc([N+](=O)[O-])cc2[nH]1 [Example 226, 6-nitro-N-(2′-(trifluoromethyl)-[1,1′-biphenyl]-3-yl)-1H-indole-2-carboxamide] |  |  | > 10 µM |  | 6.3 µM | 6.9 µM |
| O=C(Nc1cccc(-c2ccccc2C(F)(F)F)c1)c1cc2cc([N+](=O)[O-])ccc2[nH]1 [Example 227, 5-nitro-N-(2′-(trifluoromethyl)-[1,1′-biphenyl]-3-yl)-1H-indole-2-carboxamide] |  |  | > 10 µM |  | > 10 µM | 30 µM |
| Cc1c(C(=O)Nc2cccc(-c3ccccc3C(F)(F)F)c2)[nH]c2ccc([N+](=O)[O-])cc12 [Example 228, 3-methyl-5-nitro-N-(2′-(trifluoromethyl)-[1,1′-biphenyl]-3-yl)-1H-indole-2-carboxamide] |  |  | > 10 µM |  | > 10 µM | 41.4 µM |
| O=C(Nc1cccc(-c2ccc(F)cc2C(F)(F)F)c1)C1Cc2ccc([N+](=O)[O-])cc2N1 (stereo not shown) [Example 229, N-(4′-fluoro-2′-(trifluoromethyl)-[1,1′-biphenyl]-3-yl)-6-nitroindoline-2-carboxamide] |  |  | 5.4 µM |  | 1.4 µM | 16.1 µM |
| O=C(Nc1cccc(-c2ccccc2C(F)(F)F)c1)C1Cc2ccc([N+](=O)[O-])cc2N1 (stereo not shown) [Example 230, 6-nitro-N-(2′-(trifluoromethyl)-[1,1′-biphenyl]-3-yl)indoline-2-carboxamide] |  |  | 2.7 µM |  | 1.1 µM | 17.6 µM |
| O=C(Nc1cccc(-c2ccc(F)cc2F)c1)C1Cc2ccc([N+](=O)[O-])cc2N1 (stereo not shown) [Example 231, N-(2′,4′-difluoro-[1,1′-biphenyl]-3-yl)-6-nitroindoline-2-carboxamide] |  |  | > 10 µM |  | 2.9 µM | 19.3 µM |
| O=C(Nc1cccc(-c2ccccc2C(F)(F)F)c1)c1nc2ccc([N+](=O)[O-])cc2s1 [Example 232, 6-nitro-N-(2′-(trifluoromethyl)-[1,1′-biphenyl]-3-yl)benzo[d]thiazole-2-carboxamide] |  |  | > 10 µM |  | > 10 µM | 20.5 µM |
| O=C(Nc1cccc(-c2ccc(F)cc2F)c1)c1nc2cc([N+](=O)[O-])ccc2[nH]1 [Example 233, N-(2′,4′-difluoro-[1,1′-biphenyl]-3-yl)-5-nitro-1H-benzo[d]imidazole-2-carboxamide] |  |  | > 10 µM |  | > 10 µM | > 50 µM |
| O=C(Nc1cccc(-c2ccccc2C(F)(F)F)c1)c1nc2cc([N+](=O)[O-])ccc2[nH]1 [Example 234, 5-nitro-N-(2′-(trifluoromethyl)-[1,1′-biphenyl]-3-yl)-1H-benzo[d]imidazole-2-carboxamide] |  |  | 1.56 µM |  | > 10 µM | 1.6 µM |
| O=C(Nc1cccc(-c2ccc(F)cc2C(F)(F)F)c1)c1nc2cc([N+](=O)[O-])ccc2[nH]1 [Example 235, N-(4′-fluoro-2′-(trifluoromethyl)-[1,1′-biphenyl]-3-yl)-5-nitro-1H-benzo[d]imidazole-2-carboxamide] |  |  | > 10 µM |  | > 10 µM | 37 µM |
| O=C(Nc1cccc(-c2ccc(F)cc2C(F)(F)F)c1)c1cc2ccc([N+](=O)[O-])cc2[nH]1 [Example 244, N-(4′-fluoro-2′-(trifluoromethyl)-[1,1′-biphenyl]-3-yl)-6-nitro-1H-indole-2-carboxamide] |  |  | > 10 µM |  | > 10 µM | 30.6 µM |
| Cn1c(C(=O)Nc2cccc(-c3ccc(F)cc3F)c2)cc2ccc([N+](=O)[O-])cc21 [Example 247, N-(2′,4′-difluoro-[1,1′-biphenyl]-3-yl)-1-methyl-6-nitro-1H-indole-2-carboxamide] |  |  | 3.7 µM |  | > 10 µM | > 50 µM |
| Cn1c(C(=O)Nc2cccc(-c3ccc(F)cc3F)c2)cc2ccc(NS(C)(=O)=O)cc21 [Example 248, N-(2′,4′-difluoro-[1,1′-biphenyl]-3-yl)-1-methyl-6-(methylsulfonamido)-1H-indole-2-carboxamide] |  |  | 9.6 µM |  | 6.1 µM | 15.7 µM |
| Cn1c(C(=O)Nc2cccc(-c3ccccc3C(F)(F)F)c2)cc2ccc([N+](=O)[O-])cc21 [Example 249, 1-methyl-6-nitro-N-(2′-(trifluoromethyl)-[1,1′-biphenyl]-3-yl)-1H-indole-2-carboxamide] |  |  | > 10 µM |  | > 10 µM | 8.4 µM |
| Cn1c(C(=O)Nc2cccc(-c3ccccc3C(F)(F)F)c2)cc2cc([N+](=O)[O-])ccc21 [Example 250, 1-methyl-5-nitro-N-(2′-(trifluoromethyl)-[1,1′-biphenyl]-3-yl)-1H-indole-2-carboxamide] |  |  | > 10 µM |  | > 10 µM | 22 µM |
| Cc1c(C(=O)Nc2cccc(-c3ccccc3C(F)(F)F)c2)n(CCN2CCOCC2)c2ccc([N+](=O)[O-])cc12 [Example 251, 3-methyl-1-(2-morpholinoethyl)-5-nitro-N-(2′-(trifluoromethyl)-[1,1′-biphenyl]-3-yl)-1H-indole-2-carboxamide] |  |  | > 10 µM |  | > 10 µM | 26.7 µM |
| CS(=O)(=O)Nc1ccc2cc(C(=O)Nc3cccc(-c4ccc(F)cc4F)c3)[nH]c2c1 [Example 270, N-(2′,4′-difluoro-[1,1′-biphenyl]-3-yl)-6-(methylsulfonamido)-1H-indole-2-carboxamide] | 0.7 µM | 1.7 µM | 1.01 µM |  | 0.38 µM |  |
| CS(=O)(=O)Nc1ccc2cc(C(=O)Nc3cc(Br)cc(-c4ccc(F)cc4F)c3)[nH]c2c1 [Example 302, N-(5-bromo-2′,4′-difluoro-[1,1′-biphenyl]-3-yl)-6-(methylsulfonamido)-1H-indole-2-carboxamide] | 0.11 µM | 2.7 µM | 2.5 µM | 0.57 µM | 0.4 µM |  |
| CS(=O)(=O)Nc1ccc2sc(C(=O)Nc3cc(Br)cc(-c4ccc(F)cc4F)c3)cc2c1 [Example 305, N-(5-bromo-2′,4′-difluoro-[1,1′-biphenyl]-3-yl)-5-(methylsulfonamido)benzo[b]thiophene-2-carboxamide] | 0.001 µM | 0.24 µM | 0.072 µM | 0.03 µM | 0.067 µM |  |
| CN(c1ccc2cc(C(=O)Nc3cccc(-c4ccc(F)cc4F)c3)[nH]c2c1)S(C)(=O)=O [Example 344, N-(2′,4′-difluoro-[1,1′-biphenyl]-3-yl)-6-(N-methylmethylsulfonamido)-1H-indole-2-carboxamide] | 0.1 µM | 0.49 µM | 0.014 µM |  | 0.15 µM |  |
